Measured values: US6409988B1, “Radiolabeled 1-aryl pyrazoles, the synthesis thereof and the use thereof as pest GABA receptor ligands” (3-Dimensional Pharmaceuticals, Inc., priority 1999, dated 2002)

Key:
housefly GABA receptor = biological target: T1, housefly GABA receptor (Musca domestica, UniProt Q75NA5); experiment: Displacement of 3H-EBOB from the housefly GABA receptor; assay type: binding
T1 sequence (Q75NA5 30-576): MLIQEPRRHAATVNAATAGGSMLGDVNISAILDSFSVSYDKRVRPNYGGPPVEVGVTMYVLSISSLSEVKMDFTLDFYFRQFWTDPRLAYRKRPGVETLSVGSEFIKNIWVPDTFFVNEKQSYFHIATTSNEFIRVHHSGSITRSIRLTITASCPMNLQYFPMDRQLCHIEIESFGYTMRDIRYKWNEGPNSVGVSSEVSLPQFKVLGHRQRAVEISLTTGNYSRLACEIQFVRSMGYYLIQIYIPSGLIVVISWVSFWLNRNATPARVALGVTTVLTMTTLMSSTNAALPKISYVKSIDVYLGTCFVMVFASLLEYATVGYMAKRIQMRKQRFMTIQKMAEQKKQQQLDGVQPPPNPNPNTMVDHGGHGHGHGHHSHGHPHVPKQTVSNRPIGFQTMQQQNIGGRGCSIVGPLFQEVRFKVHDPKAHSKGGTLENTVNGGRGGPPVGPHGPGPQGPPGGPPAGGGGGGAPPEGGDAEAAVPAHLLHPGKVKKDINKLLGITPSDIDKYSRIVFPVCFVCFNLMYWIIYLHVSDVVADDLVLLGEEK
Experimental: (§1) Compound 1 binds to the housefly GABA receptor with high affinity (IC50=8 nM, for displacement of 2.6 nM of ^3H-EBOB) and can be radiolabeled at high specific activity (>70 Ci/mmol). These are two highly desirable requirements for a new radioligand.

[1] = Chemical stability of the radioligand; assay type: physicochemical; conditions: avoids periodic purification steps
Experimental: as §1

[3H]C([3H])([3H])Sc1nn(-c2c(Cl)cc(C(F)(F)F)cc2Cl)c(N)c1C#N [Compound 1, 4-cyano-1-(2,6-dichloro-4-trifluorophenyl)-3-[^3H3]methylthiopyrazol-5-ylamine]
IC50 (housefly GABA receptor): 8 nM | chemical stability [1]: chemically stable
